We go through 7 molecules from patent US20120294826A1, “METHODS, KITS AND COMPOSITIONS FOR AMELIORATING ADVERSE EFFECTS ASSOCIATED WITH TRANSFUSION OF AGED RED BLOOD CELLS” (priority 2009, published 2012).

One series has as its system E. coli. As to the kind of experiment: In vitro bacterial growth in plasma from transfused mice. In kind it is cell-based. As to the method:
Results shown in FIG. 15A are representative of two experiments. C57BL/6 mice were infused with a sub-clinical dose of LPS (E. coli 0111:B4; 30 μg per mouse by tail vein injection) followed by transfusion of 400 μL of fresh RBCs or stored RBCs. Mice were sacrificed at 24-hour post-transfusion and plasma cytokines measured (n=5 per group). *P=0.008, **P=0.003 as compared to mice infused LPS+ stored RBCs. To obtain the results shown in FIG. 15B, plasma (100 μL) was obtained from mice 2-hours post-transfusion with 400 μL of fresh RBCs (n=15), stored RBCs (n=24), stored RBC-derived supernatant (n=12), washed stored RBCs (n=13), or ghosts prepared from stored RBCs (n=8). Plasma was also obtained from control untransfused mice (n=14) or 24-hours post-transfusion with stored RBCs (n=8). Samples were incubated at 37° C. with shaking with about 1×10^6 CFU of E. coli, as labeled. Bacterial growth was monitored every 30 minutes by absorbance at 600 nm for up to 5 hours. […] To obtain the results shown in FIG. 15C, pooled plasma samples (100 μL) from mice 2 hours after transfusion with 400 μL of fresh RBCs or stored RBCs were supplemented with either ferric citrate (20 μM), sodium citrate (20 μM), bovine serum albumin (BSA; 80 μM), or protoporphyrin IX (20 μM), and then incubated at 37° C. with shaking with ˜1×10^6 CFU of E. coli. Bacterial growth was monitored every 30 minutes by absorbance at 600 nm for up to 5 hours in replicates of 5 per group. […] To obtain the results shown in FIG. 15D, pooled plasma (n=4) were incubated with the iron chelator, DFO (20 μM), or with the iron-chelated form of DFO, ferroxamine (FO) (20 μM) and inoculated with E. coli as shown for the previous experiment. […] To obtain the results shown in FIG. 15E, pooled plasma (n=5) was incubated with the iron chelator, 2,2′-dipyridyl (400 μM), with or without ferric citrate (133 μM) and inoculated with E. coli, as shown for the previous experiment. […] Results are representative of at least 2 experiments and are shown as mean (±SEM). Note that the absence of an error bar is indicative of highly reproducible replicates with pooled plasma.
A pathogenic strain of E. coli, obtained from an anonymous patient with a urinary tract infection, was used. For each experiment, a sample from a frozen stock of this E. coli was inoculated into Nutrient Broth (Difco, BD Biosciences) and grown to mid-log phase (about 3 hours). Bacteria were then washed twice in PBS and re-suspended to about 200,000 colony forming units (CFU)/μL. Five microliters of bacterial suspension were then added to 100 μL of heparinized plasma in a 96-well EIA/RIA plate (Costar, Sigma). Bacterial growth was measured by absorbance at 600 nm. In some experiments, 20 μM of ferric citrate or sodium citrate (Sigma), bovine serum albumin, 2,2′-dipyridyl (all from Sigma-Aldrich), protoporphyrin IX (Frontier Scientific, Logan, Utah), or DFO were added to plasma before bacterial inoculation.
Significance between two means was calculated using a two-tailed Mann-Whitney U test. Significance relevant to bacterial growth in vitro was determined by converting each growth curve to an area under the curve (AUC) value followed by a 2-tailed Mann-Whitney U test to compare mean AUC for each group. A value for P less than 0.05 was considered significant. Statistical analysis was performed using Prism 5 (GraphPad Software, Inc., La Jolla, Calif.).

The conditions of series [1]: in vivo; cited from earlier work.
Series [2] relates to pro-inflammatory response induced by stored RBC transfusions. As to the kind of experiment: DFO or FO infusion immediately before stored RBC transfusion, plasma cytokine/chemokine levels (FIG. 16A, 19). As to conditions: 2 hours. In kind it is in vivo, mice. As to the method:
To obtain the results shown in FIG. 16A, mice were pretreated with a PBS vehicle control (n=28) or with 3 mg of DFO, with (n=15) or without (n=31) the addition of equimolar ferric citrate, immediately before transfusion with stored RBCs (400 μL). Mice were sacrificed 2 hours after transfusion, and plasma cytokine levels were measured; *P<0.05; **P<0.01; ***P<0.001 compared with mice infused with PBS vehicle and transfused stored RBCs. To obtain the results shown in FIG. 16B, bioluminescence was quantified for 24 hours after transfusion over the hepatosplenic region of SAA1-luciferase reporter mice transfused with 200 μL of fresh RBCs (n=3; •), the PBS vehicle control and stored RBCs (n=3; ▪), or 3 mg of DFO and stored RBCs (n=6; ▴); P=0.095 at 4 and 6 hours after transfusion comparing vehicle-treated and DFO-treated mice. […]
Mice were untreated or pretreated with 3 mg of DFO immediately before stored RBC transfusion (400 μL; n=14 per group). Mice were sacrificed 2-hours post-transfusion and plasma cytokine/chemokine levels measured. […]
RBCs (200 or 400 μL at 17.0-17.5 g/dL of hemoglobin; 1 or 2 equivalent human units, respectively) were transfused through the retro-orbital plexus of isoflurane-anesthetized mice. […] Survival was calculated by comparing the ratio of Dil- to DiO-labeled RBCs in the sample to the ratio in the transfuse itself. […]

A further series relates to TNF-α. The settings on record: LPS-challenged mice; reference [119]; cited from earlier work.
[3] abbreviates: added to pooled plasma from mice transfused with fresh RBCs, 20 μM (bovine serum albumin 80 μM).

For `c1ccc(-c2ccccn2)nc1` [2,2′-dipyridyl], the bacterial growth entry in the series on E. coli (2,2′-dipyridyl 400 μM in pooled plasma from mice transfused with stored RBCs) is given as “greater inhibition of bacterial growth”. In the series with E. coli (2,2′-dipyridyl preincubated with a one-third molar ratio of ferric citrate (133 μM)), the “inhibitory effect on bacterial growth” value is reported as “abrogated”. Take `CC(=O)N(O)CCCCCNC(=O)CCC(=O)N(O)CCCCCNC(=O)CCC(=O)N(O)CCCCCN` [DFO, deferoxamine]: in series [1], the t1/2 was 6 h. For the same molecule, in series [2] (3 mg (about 120 mg/kg) DFO i.v. immediately before stored RBCs, mean±s.e.m., without DFO 212.8±30.8, P=0.005), the “plasma IL-6 levels” value was 98.4 ± 10.1 pg/mL. With `CC(=O)N([O-])CCCCCNC(=O)CCC(=O)N([O-])CCCCCNC(=O)CCC(=O)N([O-])CCCCCN.[Fe+3]` [FO, ferroxamine], the bacterial growth result in the series with E. coli (20 μM added to pooled plasma from mice transfused with stored RBCs, absorbance at 600 nm up to 5 hours) is on record as “prevented the inhibition of bacterial growth”. In addition, the proinflammatory cytokine response result in series [2] (3 mg DFO, or FO (equimolar DFO and ferric citrate), before stored RBCs (400 μL)) was “as effective as DFO”. Further, in the series on TNF-α, the TNF-α levels entry is “reduced TNF-α levels to a similar extent”.

In the case of `O=C(O)c1ccc(-n2nc(-c3ccccc3O)nc2-c2ccccc2O)cc1` [deferasirox], in series [1], the t1/2 is 8 to 16 h. Regarding `O=C([O-])CC(O)(CC(=O)[O-])C(=O)[O-].[Na+].[Na+].[Na+]` [sodium citrate], in the series with E. coli (setting [3]), the bacterial growth result is “not”.

For the molecule “bovine serum albumin: bovine serum albumin control supplement”, the bacterial growth result with E. coli (setting [3]) is on record as “not”. For ferric citrate [iron citrate], the bacterial growth entry with E. coli (setting [3]) is on record as “promoted to a similar level as in plasma from mice transfused with stored RBCs”.
